The record followed here is a melting point compilation (Tetko et al.; mined from patent text by program, amines drawn as free bases though some values may be those of a salt).

The structures appear in SMILES notation.

On to `COC(=O)c1ccc2nc(CC(C)C)c(CNC(=O)OC(C)(C)C)c(-c3ccc(C)cc3)c2c1`, for which the melting point – broadly, the temperature of the solid-liquid transition – lay in the range of 192 to 194 °C.
Next, `COc1ccc(S(=O)(=O)N2C(=O)C(c3ccccc3OC)(N3CCc4ccccc4[C@H]3C(=O)N(C)C)c3cc(Cl)ccc32)c(OC)c1` (stereo partly specified): 263 °C; `O=C(NCC1CCOCC1)NC12CC3CC(CC(C3)C1)C2`: 196 to 198 °C.
Next, `Nc1cc(Cl)cnc1Oc1ccc(O)cc1`: 174 °C; `CSc1ccc(C(=O)Cc2ccccc2)cc1Cl`: 101 to 102 °C; `CCn1nc(C(N)=O)cc1CC(C)(C)NC(=O)OC(C)(C)C`: 178 to 180 °C.
Next, `Cc1ccc(-c2nn(-c3cccc([N+](=O)[O-])c3)c(N)c2C(N)=O)cc1`: 237 to 238 °C.
In the case of `Fc1cccc(COc2ccc(Nc3ncnc4sc(C#Cc5nccs5)cc34)cc2Cl)c1`, the melting point worked out at 204 °C.
Next, `O=C(NCCc1ccccc1)c1ccccc1I`: 125 to 126 °C; `N#CCc1ccc(CC(=O)O)c(S(N)(=O)=O)c1`: 125 to 129 °C.
Regarding `CC(=O)NC(Cc1c[nH]c2ccccc12)C(=O)NCc1cc(C(F)(F)F)cc(C(F)(F)F)c1` (stereo unspecified), the melting point lay in the range of 171 to 173 °C.
Next, `CC(C)n1cc(C(=O)NCc2ccc(Cl)cc2)c(=O)c2cc(I)sc21`: 173 to 180 °C; `O=C(O)CCCC(=O)Nc1ccc(N2CCN(C3(c4ccc(-c5ccccc5)cc4)C(=O)NC(=O)NC3=O)CC2)cc1`: 268 to 269 °C.
`CN1C(=O)C(c2cccc(Br)c2)(C2CCN(C(=O)c3ccccc3)CC2)N=C1N` (stereo unspecified): the melting point was greater than 250 °C.
`CC(=O)OCc1ccc(C(=O)O)cc1` registered a melting point of 120 to 123 °C.
Next, `COC(=O)C1=C(C)NN=C(c2cccs2)C1c1ccccc1` (stereo unspecified): 194 °C; `COc1cc(NC(=O)c2cc(C(C)C)c(C(C)C)o2)ccc1C(=O)O`: 136 to 137 °C.
Next, `FC(F)(F)c1ccc(Cl)nn1`: 51 to 52 °C.
Next, `C#CCCCC(=O)c1cc(C)c(O)c(C(C)(C)C)c1`: 63 to 64 °C; `CCCCc1ncc(CCNC(CCc2ccccc2)C(=O)O)n1Cc1ccccc1Cl` (stereo unspecified): 123 °C; `Cn1cc(C(=O)O)c(=O)c2oc3ccccc3c(=O)c21`: 308 to 312 °C.
Turning to `Fc1cc(Cl)c(OC2CCCC2)cc1-n1nc2c(c1Cl)CCCC2`, the melting point lay within 88 to 91 °C.
Next, `COC(=O)CCC(=O)Nc1cccnc1`: 78 to 79 °C; `CNCC1CC(C)(O)c2ccc(S(=O)(=O)c3ccccc3)cc2O1` (stereo unspecified): 164 to 165 °C; `CN1CCCCC1=NC(=O)Nc1ccc(C(F)(F)F)cc1`: 154 to 155 °C.
Next, `CN(C1CC(C)(C)Oc2ccc(OCc3ccccc3)cc21)S(C)(=O)=O` (stereo unspecified): 114 to 116 °C; `CCC(C)(C)c1ccc(OCCCNC(=O)c2cc([N+](=O)[O-])c3ccccc3c2O)c(C(C)(C)CC)c1`: 209 to 210 °C; `Cc1cc(-n2ccnc2)c2cccc(OCc3c(Cl)ccc(S(=O)(=O)N4CCOCC4)c3Cl)c2n1`: 148 °C.
Next, `CC(C)(C)OC(=O)NC1CCCCCC=CC2CC2(C(=O)NS(=O)(=O)C2CC2)NC(=O)C2CC(OC(=O)c3ccc4c(c3)OCCO4)CN2C1=O` (stereo unspecified): 199 to 201 °C; `OC(CN1CCCCC1)c1cc(-c2ccccc2)on1` (stereo unspecified): 104 to 106 °C; `CCOC(=O)c1cccc2[nH]c3c(C)ccc(C)c3c12`: 149 °C.
Consider `COC(=O)CCc1ccc(OCc2sc3ccccc3c2Cl)cc1`, for which the melting point is 97 to 98 °C.
Turning to `COc1ccc(-c2csc(Nc3ccc(C)cn3)n2)c(OC)c1`, the melting point fell in the range of 157 to 158 °C.
The compound `CCOC(=O)c1nn(-c2ccc(C=O)cc2)nc1-c1ccccc1` gave a melting point of 96 to 97 °C.
With `CCOC(=O)Cc1nnc(NS(=O)(=O)c2ccc(NC(C)=O)cc2)s1`, the melting point lay in the range of 156 to 157 °C.
In the case of `OCc1cccc(-c2nn(-c3ccc(F)cc3F)c3c2C2CCC3C2)c1` (stereo unspecified), the melting point is 113 to 115 °C.
Next, `Cc1nc(-c2ccc(C(=O)Nc3ccc(Cl)cc3)cc2)sc1C(=O)O`: 276 to 278 °C; `CS(=O)(=O)c1ccc(/C(=C\C2CCCCC2)C(=O)O)cc1[N+](=O)[O-]`: 244 to 247 °C; `CCCCc1oc2ccc(-c3nnn[nH]3)cc2c1C(=O)c1ccc(OCCCN(CCCC)CCCC)cc1`: 145 to 147 °C.
Next, `Nc1ccc2oc3c(c2c1)CCCCC3`: 98 to 99 °C.
Next, `CC1(C)Oc2cc(Cl)c(C#N)cc2C2OC21` (stereo unspecified): 129 to 132 °C.
The compound `CCc1ccc2c(O)cnn2c1` registered a melting point of 78 to 79 °C.
Next, `CCCOCCNC(=O)C(c1ccccc1)c1ccccc1`: 77.8 to 78.9 °C; `Cc1ccc(Br)cc1Cn1c(C=O)nn(C)c1=O`: 108 °C.
`C=C(C)COc1cc(C)c(NC=O)c(C)c1` returned a melting point of 128 to 129 °C.
The compound `CC(C)Oc1c(C(=O)O)sc2c1CN(C(=O)OC(C)(C)C)CC2` gave a melting point of 128 to 129 °C.
As for `Cc1ccc(F)cc1C1CC(=O)CC(=O)C1`, the melting point is 175 to 176 °C.
Next, `Cn1ccc(OC2c3cc(C#N)ccc3OC(C)(C)C2O)cc1=O` (stereo unspecified): 202 to 203 °C.
`CCOc1cc(OCCCc2cn(-c3ccc(C(F)(F)F)cn3)nc2OC(C)C)ccc1CCC(=O)O` gave a melting point of 128 to 129 °C.
Next, `CN(C)CCc1cn(Cc2ccccc2)c2ccc(C(C#N)S(=O)(=O)N(C)C(c3ccccc3)c3ccccc3)cc12` (stereo unspecified): 98 to 100 °C; `C[C@H](NC(=O)OC(C)(C)C)C(=O)OCC(C)(C)Nc1cccc2c1C(=O)c1ccccc1C2=O`: 120 °C.
In the case of `CCc1nnc(-c2ccccc2)c(=O)n1N`, the melting point stood at 164 °C.
Regarding `CS(=O)(=O)OCCCCc1ccc(OCc2coc(/C=C/c3ccccc3)n2)cc1`, the melting point lay in the range of 82 to 83 °C.
For the compound `CCOC(=O)C(C)(C)CCCCOc1ccc(NC(=O)CCCCCn2ccnc2)cc1`, the melting point was in the range of 64 to 65 °C.
Next, `NSc1nc(N)nc2c1ncn2C1OC(CO)C(O)C1O` (stereo unspecified): 190 to 192 °C.
Next, `O=C(NS(=O)(=O)c1ccccc1)c1ccc(I)cc1`: 192 to 193 °C; `CC1(CNC(=O)C2CCCCC2)OCCc2c1[nH]c1ccccc21` (stereo unspecified): 174 to 175 °C; `O=C(O)CCc1ccc(C(c2cc(F)ccc2F)S(=O)(=O)c2ccc(Cl)cc2)nc1` (stereo unspecified): 158 to 160 °C.
Next, `NS(=O)(=O)c1ccc(-c2noc(-c3cnn4c(C(F)(F)F)cc(-c5cccc(C(F)(F)F)c5)nc34)n2)cc1`: 300 °C.
Turning to `COC(=O)c1c(OCc2ccccc2)ccc2c1CC[C@@H](NC(C)=O)[C@@H]2OC(C)=O` (relative stereo), the melting point was in the range of 171 to 172 °C.
As to `CCc1nccn1-c1nc(-c2ccc(Cl)cc2)c(CCCOc2ccccc2C)o1`, the melting point lay in the range of 91 to 92 °C.
Next, `Cc1c(NC(=O)c2ccc(OC[C@@H]3CCCO3)cc2)ccc2c1cc(CNCC1CCOCC1)n2C`: 166 to 167 °C; `CCOC(=O)c1cc2cc(OCCN(C)C)ccc2[nH]1`: 110 °C; `COc1cnccc1C(C)=O`: 36 to 37 °C.
Next, `CCCCCCOC1CCC(=O)N1` (stereo unspecified): 35 to 37 °C.
Next, `COc1ccc2cc(CC[Si](C)(C)C)c(=O)oc2c1`: 130 to 132 °C; `CC(N)(C(N)=O)C(F)(F)F` (stereo unspecified): 84 to 85 °C.
`O=C(O)c1ccc(OCCNC(=O)C2Cc3ccccc3N2S(=O)(=O)c2ccc(-c3cccc(C(F)(F)F)c3)cc2)cc1Cl` (stereo unspecified) yielded a melting point of 104 to 108 °C.
Next, `Cc1c(C)c2c(c(C)c1OCc1ccc(S(C)=O)cc1)C(c1ccc(C(C)C)cc1)C(C)(C)O2` (stereo unspecified): 132 to 134 °C; `CC=CC=CC(=O)n1c(N)nc2ccccc21`: 215 °C; `Cc1ncc2[nH]c3ccccc3c2n1`: 240 to 242 °C.
As to `OCc1cc2c(Cl)ccc(Br)c2s1`, the melting point lay in the range of 141 to 143 °C.
Next, `ClCn1cc(Cl)c(-c2cc(Cl)cc(Cl)c2)n1`: 88 °C.
Next, `COC(=O)c1cccc2[nH]cc(C=O)c12`: 135 °C; `COC(=O)CCC(=O)c1ccc(-c2ccc(Br)cc2)cc1`: 115 to 116 °C; `O=C(O)/C(=N/OCc1ccccc1)c1ccc(OCCOc2ccc3ccccc3c2)s1`: 103 to 104 °C.
Next, `O=C(NS(=O)(=O)c1ccccc1)c1cccc(C[C@@H]2COc3ccc(OCc4nc5cc(F)ccc5s4)cc3[C@@H]2O)c1`: 161 to 162 °C.
In turn, `CNC(=O)c1cc(N)cc(C(F)(F)F)c1` returned a melting point of 113 to 115 °C.
Next, `CC(=O)Oc1ccc(CCCC2CC(=O)OC(=O)C2)cc1`: 55 to 57 °C.
For the compound `CN1CCCc2ccc(NC(=O)/C=C/c3ccc(C(C)(C)C)cc3)cc21`, the melting point lay in the range of 200 to 202 °C.
Next, `CC=Cc1nc2cc3c(cc2[nH]1)NC(=O)C3(C)C`: 252 to 254 °C; `COc1cc(C(=O)c2ncc3ccc(C(=O)O)cn23)ccc1N`: 306 °C.
For `CCCOc1ccccc1-c1nc2n(C(C)(C)C)[nH]cc-2c(=O)n1`, the melting point is 130 to 131 °C.
Next, `O=C(CCCCCCC(=O)c1ccc(F)cc1)c1ccc(F)cc1`: 123 to 124 °C.
Next, `CC1(C)C(=O)Nc2ccc(C(=O)O)cc21`: greater than 250 °C; `Cc1noc(C(C)c2ccc(-c3ccccc3)c(F)c2)n1` (stereo unspecified): 55 to 56 °C; `O=[N+]([O-])c1cc(Cl)cc2c1OCCO2`: 135 to 137 °C.
Next, `C=CCC(N)(Cc1ccccc1)C(N)=O` (stereo unspecified): 120 to 121 °C; `CN(C)C(=S)SC(C[N+](=O)[O-])c1ccccc1Cl` (stereo unspecified): 102 to 104 °C; `Cc1c(Cl)ccc(C(N)=O)c1N`: 206 to 208 °C.
On to `COc1cccc(C(O)CN(C)Cc2cc3c(=O)c(C(=O)NCc4ccc(Cl)cc4)cn(C)c3o2)c1` (stereo unspecified), for which the melting point lay in the range of 116 to 120 °C.
